In patent US20080051418A1, “Arylalkanoic Acid Derivative” (priority 2004, published 2008):
Read-outs that look alike come from different tables or passages of the source.

Legend:
[1] = tested on: KKA^y mice; assay: Plasma antiatherogenic index increasing action in mice; format: in vivo; settings: Mus musculus, po, 96 h, 0.005% in powder diet, 4 days, increase rate of (HDL cholesterol/total cholesterol)×100, non-administration group = 100%
Description: The test compound was mixed with a powder diet (CE-2, CLEA JAPAN, INC.) at a proportion of 0.005% (0.01% for the compound of Example 105) and freely given to KKA^y mice (9 to 12-week-old, 5 mice per group) which are obesity-insulin independent diabetes mellitus (type-2 diabetes) models, for 4 days. During this period, water was freely given. The blood was drawn from fundus and the components were measured using the plasma separated from the blood. The total cholesterol was quantified using L Type Wako cholesterol (Wako Pure Chemical Industries, Ltd.). In addition, an HDL cholesterol precipitation reagent (Wako Pure Chemical Industries, Ltd.) was added to a part of the plasma to allow precipitation of a non-HDL lipoprotein, and the cholesterol (HDL cholesterol) of the supernatant was measured. The plasma antiatherogenic index [(HDL cholesterol/total cholesterol)×100] was calculated from these cholesterol values.

[2] = tested on: KKA^y mice; assay: Blood glucose and blood lipid (triglyceride) lowering action in mice; format: in vivo; settings: Mus musculus, po, 96 h, 0.005% in powder diet, 4 days, non-administration group = 100%
Text: The test compound was mixed with a powder diet (CE-2, CLEA JAPAN, INC.) at a proportion of 0.005% (0.01% for the compound of Example 105) and freely given to KKA^y mice (9 to 12-week-old, 5 mice per group) which are obesity-insulin independent diabetes mellitus (type-2 diabetes) models, for 4 days. During this period, water was freely given. The blood was drawn from the orbital venous plexus. Glucose and triglyceride in the plasma separated from the blood were quantitated using L Type Wako Glu2 (Wako Pure Chemical Industries, Ltd.) and L Type Wako TG•H (Wako Pure Chemical Industries, Ltd.), respectively, according to an enzyme method.

[3] = biological target: T1, PPARγ-RXRα heterodimer (Homo sapiens, UniProt P37231); assay: PPARγ-RXRα heterodimer ligand activity (luciferase reporter); format: cell-based; settings: PPARγ:RXRα:4ERPP/CHO-K1 cells, 18-24 hr, concentration showing 50% of the maximum induction rate
T1 construct: expressed in transfected cells; host or cells: CHO-K1
T1 sequence (P37231 1-505): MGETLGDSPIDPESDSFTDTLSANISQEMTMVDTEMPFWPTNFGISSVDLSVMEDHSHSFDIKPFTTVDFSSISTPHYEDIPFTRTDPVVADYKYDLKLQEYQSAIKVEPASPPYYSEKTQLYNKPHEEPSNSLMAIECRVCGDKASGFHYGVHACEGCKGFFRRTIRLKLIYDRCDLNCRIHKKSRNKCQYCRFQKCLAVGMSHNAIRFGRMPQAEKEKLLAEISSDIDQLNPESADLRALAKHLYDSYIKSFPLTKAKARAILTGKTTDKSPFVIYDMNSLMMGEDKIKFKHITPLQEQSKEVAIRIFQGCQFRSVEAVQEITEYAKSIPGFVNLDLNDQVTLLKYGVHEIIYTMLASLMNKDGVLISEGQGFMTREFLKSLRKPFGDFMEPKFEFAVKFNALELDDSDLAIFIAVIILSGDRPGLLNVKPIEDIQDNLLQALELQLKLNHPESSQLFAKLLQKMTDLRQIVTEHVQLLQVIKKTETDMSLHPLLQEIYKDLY
T1 sequence (P19793 1-462 partner): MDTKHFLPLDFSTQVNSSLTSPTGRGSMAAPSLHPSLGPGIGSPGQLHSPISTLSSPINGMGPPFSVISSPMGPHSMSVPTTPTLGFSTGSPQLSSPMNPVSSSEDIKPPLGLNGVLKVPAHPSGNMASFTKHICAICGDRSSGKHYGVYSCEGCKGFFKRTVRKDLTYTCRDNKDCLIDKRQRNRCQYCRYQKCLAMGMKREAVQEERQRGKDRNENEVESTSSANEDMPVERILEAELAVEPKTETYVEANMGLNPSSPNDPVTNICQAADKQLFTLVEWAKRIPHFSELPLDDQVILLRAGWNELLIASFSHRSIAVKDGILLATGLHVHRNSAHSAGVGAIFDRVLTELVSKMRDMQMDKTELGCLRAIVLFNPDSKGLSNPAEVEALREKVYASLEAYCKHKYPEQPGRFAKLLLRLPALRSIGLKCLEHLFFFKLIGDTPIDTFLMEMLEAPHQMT
Procedure, shortened: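 CHO-K1 cells carrying PPARγ, RXRα and a 4ERPP luciferase reporter, exposed to compound 18–24 h at 37 °C in Ham F12 with 0.1% fatty acid-free BSA. Luciferase induction expressed relative to untreated cells (= 1). EC50 is concentration giving 50% of maximal induction.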

[4] = biological target: T2, PPARδ-RXRα heterodimer (Homo sapiens, UniProt Q03181); assay: PPARδ-RXRα heterodimer ligand activity (luciferase reporter); format: cell-based; settings: transformant of Reference Example 9a of WO03/099793, 36-48 hr, concentration showing 50% of the maximum induction rate
T2 construct: expressed in transfected cells
T2 sequence (Q03181 1-441): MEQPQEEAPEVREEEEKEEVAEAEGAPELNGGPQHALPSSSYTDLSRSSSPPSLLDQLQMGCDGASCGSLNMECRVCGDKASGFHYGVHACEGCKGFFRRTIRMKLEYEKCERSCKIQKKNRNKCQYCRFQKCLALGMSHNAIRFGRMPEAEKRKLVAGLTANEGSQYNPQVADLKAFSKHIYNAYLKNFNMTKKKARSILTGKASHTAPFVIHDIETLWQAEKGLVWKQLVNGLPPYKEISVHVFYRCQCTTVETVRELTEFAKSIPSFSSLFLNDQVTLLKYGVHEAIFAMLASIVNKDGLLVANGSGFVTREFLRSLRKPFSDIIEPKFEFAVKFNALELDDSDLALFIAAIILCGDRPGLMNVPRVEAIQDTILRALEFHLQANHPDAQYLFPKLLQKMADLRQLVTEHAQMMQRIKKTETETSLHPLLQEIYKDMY
T2 sequence (P19793 1-462 partner): T1 sequence (P19793 1-462 partner)
Description: The transformant described in Reference Example 9a of WO03/099793 was suspended in a DMEM medium [manufactured by Life technologies, Inc., US] containing 0.1% fatty acid-free bovine serum albumin (BSA) (manufactured by Wako Pure Chemical Industries, Ltd.), and inoculated to each well of a 96 well white plate [manufactured by Corning Coster Corporation, US] by 80 μl to 1×10^4 cells/well. Then, the test compound (20 μl) was added, and cultured under the conditions of 37° C., 5% CO2 for 36-48 hr. The medium was removed from the 96 well white plate, 40 μl of PicaGene LT 7.5 (manufactured by Wako Pure Chemical Industries, Ltd.) diluted 2-fold with HBSS (HANKS' BALANCED SALT SOLUTION) [manufactured by BIO WHITTAKER, US] was added and, after stirring, the luciferase activity was determined using the 1420 ARVO Multilabel Counter [manufactured by PerkinElmer, US].
The induction rate was calculated from the luciferase activity of each test compound based on the luciferase activity of the test compound non-administration group as 1. The test compound concentration and the induction rate were analyzed by PRISM [manufactured by GraphPad Software, Inc., US] to calculate EC50 value (compound concentration showing 50% of the maximum value of induction rate) of the test compound.

[5] = lowering rate of plasma glucose, read-out: hypoglycemic action (%)
[6] = lowering rate of plasma triglyceride, read-out: hypolipidemic action (%)

Compound: CCCOc1cc(CCCOc2c(CC(=O)O)cccc2OC)n(Cc2ccccc2)n1 [Example 56, {2-[3-(1-benzyl-3-propoxy-1H-pyrazol-5-yl)propoxy]-3-methoxyphenyl}acetic acid]
- change in vivo at 0.005 % [1]: 12%

Compound: COc1cccc(CC(=O)O)c1OCCCc1cc(OC(C)C)nn1Cc1ccc(F)cc1Cl [Example 64, (2-{3-[1-(2-chloro-4-fluorobenzyl)-3-isopropoxy-1H-pyrazol-5-yl]propoxy}-3-methoxyphenyl)acetic acid]
- inhibition in vivo at 0.005 % [2, 5]: 59%
- inhibition in vivo at 0.005 % [2, 6]: 71%
- EC50 [3]: 11 nM
- EC50 [4]: 93 nM

Compound: COc1cccc(CC(=O)O)c1OCCCc1ccc(OC(C)C)cc1Oc1ccc(C(F)(F)F)cn1 [Example 107, {2-[3-(4-isopropoxy-2-{[5-(trifluoromethyl)pyridin-2-yl]oxy}phenyl)propoxy]-3-methoxyphenyl}acetic acid]
- change in vivo at 0.005 % [1]: 13%

Compound: CCn1cc(CC(=O)O)c(OCCCc2ccc(OC(C)C)cc2Oc2ncc(C(F)(F)F)cc2Cl)n1 [Example 117, {3-[3-(2-{[3-chloro-5-(trifluoromethyl)pyridin-2-yl]oxy}-4-isopropoxyphenyl)propoxy]-1-ethyl-1H-pyrazol-4-yl}acetic acid]
- inhibition in vivo at 0.005 % [2, 5]: 49%
- inhibition in vivo at 0.005 % [2, 6]: 18%
- EC50 [3]: 0.78 nM
- EC50 [4]: 4.3 nM

Compound: COCCOc1ccc(CCCOc2nn(C)cc2CC(=O)O)c(Oc2ncc(C(F)(F)F)cc2Cl)c1 [Example 122, (3-{3-[2-{[3-chloro-5-(trifluoromethyl)pyridin-2-yl]oxy}-4-(2-methoxyethoxy)phenyl]propoxy}-1-methyl-1H-pyrazol-4-yl)acetic acid]
- inhibition in vivo at 0.005 % [2, 5]: 72%
- inhibition in vivo at 0.005 % [2, 6]: 33%
- EC50 [3]: 4.1 nM
- EC50 [4]: 76 nM
- melting point: 127 to 129 °C

Compound: CC(C)Oc1ccc(CCCOc2cc(CCC(=O)O)n(-c3ccccc3)n2)c(Oc2ncc(C(F)(F)F)cc2Cl)c1 [Example 136, 3-{3-[3-(2-{[3-chloro-5-(trifluoromethyl)pyridin-2-yl]oxy}-4-isopropoxyphenyl)propoxy]-1-phenyl-1H-pyrazol-5-yl}propanoic acid]
- inhibition in vivo at 0.005 % [2, 5]: 57%
- inhibition in vivo at 0.005 % [2, 6]: 38%
- EC50 [3]: 0.42 nM
- EC50 [4]: 2.5 nM
- melting point: 86 to 88 °C

Compound: CCn1nc(OCCCc2ccc(OC(C)C)cc2Oc2ncc(C(F)(F)F)cc2Cl)cc1CCC(=O)O [Example 141, 3-{3-[3-(2-{[3-chloro-5-(trifluoromethyl)pyridin-2-yl]oxy}-4-isopropoxyphenyl)propoxy]-1-ethyl-1H-pyrazol-5-yl}propanoic acid]
- inhibition in vivo at 0.005 % [2, 5]: 44%
- inhibition in vivo at 0.005 % [2, 6]: 41%
- EC50 [3]: 1.6 nM
- EC50 [4]: 6.9 nM
- melting point: 73 to 74 °C

Compound: COCCOc1ccc(CCCOc2cc(CCC(=O)O)n(-c3ccccc3)n2)c(Oc2ncc(C(F)(F)F)cc2Cl)c1 [Example 147, 3-(3-{3-[2-{[3-chloro-5-(trifluoromethyl)pyridin-2-yl]oxy}-4-(2-methoxyethoxy)phenyl]propoxy}-1-phenyl-1H-pyrazol-5-yl)propanoic acid]
- EC50 [3]: 0.35 nM
- EC50 [4]: 4.4 nM
- melting point: 128 to 129 °C

Compound: CC(C)Oc1ccc(CCCCOc2cc(CCC(=O)O)n(-c3ccccc3)n2)c(Oc2ncc(C(F)(F)F)cc2Cl)c1 [Example 156, 3-{3-[4-(2-{[3-chloro-5-(trifluoromethyl)pyridin-2-yl]oxy}-4-isopropoxyphenyl)butoxy]-1-phenyl-1H-pyrazol-5-yl}propanoic acid]
- EC50 [3]: 0.99 nM
- EC50 [4]: 3.4 nM
- melting point: 75 to 77 °C

Compound: CCn1nc(OCCCCc2ccc(OC(C)C)cc2Oc2ncc(C(F)(F)F)cc2Cl)cc1CCC(=O)O [Example 158, 3-{3-[4-(2-{[3-chloro-5-(trifluoromethyl)pyridin-2-yl]oxy}-4-isopropoxyphenyl)butoxy]-1-ethyl-1H-pyrazol-5-yl}propanoic acid]
- EC50 [3]: 7.1 nM
- EC50 [4]: 17 nM
- melting point: 129 to 130 °C

Compound: CC(C)Oc1ccc(CCCOc2cc(CCC(=O)O)n(-c3ccccc3)n2)c(OCc2ccc(Cl)cc2Cl)c1 [Example 160, 3-[3-(3-{2-[(2,4-dichlorobenzyl)oxy]-4-isopropoxyphenyl}propoxy) -1-phenyl-1H-pyrazol-5-yl]propanoic acid]
- EC50 [3]: 5.3 nM
- EC50 [4]: 6 nM
- melting point: 139 to 141 °C

Compound: CC(C)Oc1ccc(CCCOc2cc(CCC(=O)O)n(-c3ccccc3)n2)c(OCc2ccc(C(F)(F)F)cc2)c1 [Example 166, 3-{3-[3-(4-isopropoxy-2-{[4-(trifluoromethyl)benzyl]oxy}phenyl)propoxy]-1-phenyl-1H-pyrazol-5-yl}propanoic acid]
- EC50 [3]: 24 nM
- EC50 [4]: 2.2 nM
- melting point: 118 to 119 °C

Compound: CC(C)Oc1cc(CCCOc2cc(CCC(=O)O)n(-c3ccccc3)n2)cc(COc2ccc(Cl)cc2Cl)c1 [Example 196, 3-[3-(3-{3-[(2,4-dichlorophenoxy)methyl]-5-isopropoxyphenyl}propoxy)-1-phenyl-1H-pyrazol-5-yl]propanoic acid]
- EC50 [3]: 16 nM
- EC50 [4]: 11 nM
- melting point: 104 to 106 °C
